{
  "source": "patent US20070148240A1",
  "about": "“Oral formulation containing itraconazole and methods for manufacturing and using the same” (priority 2005, published 2007)",
  "origin": "cited, not measured here",
  "key": {"[1]": {"test": "not given", "remark": "listed apart in the source"}},
  "data": [
    {"compound": "CCC(C)n1ncn(-c2ccc(N3CCN(c4ccc(OC[C@H]5CO[C@](Cn6cncn6)(c6ccc(Cl)cc6Cl)O5)cc4)CC3)cc2)c1=O", "note": "(mixture of isomers) [itraconazole, (±)-cis-4-[4-[4-[4-[[2-(2,4-dichlorophenyl)-2-(1H-1,2,4-triazol-1-ylmethyl)-1,3-dioxolan-4-yl]methoxy]phenyl]-1-piperazinyl]phenyl]-2,4-dihydro-2-(1-methylpropyl)-3H-1,2,4-triazol-3-one]", "values": [
      {"measurement": "solubility in acids", "setting": "in acids such as hydrochloric acid, acetic acid, phosphoric acid and methylsulfonic acid", "result": "easily soluble"},
      {"measurement": "solubility in ethanol", "setting": "in ethanol", "result": "low"},
      {"measurement": "solubility in methylene chloride", "setting": "in methylene chloride", "result": "easily soluble"},
      {"measurement": "solubility in water", "setting": "in water", "result": "less than 1 μg/ml"},
      {"measurement": "time to reach peak concentration in plasma", "setting": "[1]; after being taken by patients", "result": "3 to 4", "unit": "h"},
      {"measurement": "concentration in blood relative to that in plasma", "setting": "[1]; human, in vivo", "result": "about 60%"},
      {"measurement": "itraconazole in original form excreted in feces", "setting": "[1]; human, in vivo", "result": "3-18%"},
      {"measurement": "itraconazole in original form secreted in urine", "setting": "[1]; human, in vivo", "result": "≤ 0.03", "unit": "%"},
      {"measurement": "plasma half life", "setting": "[1]; human, in vivo", "result": "24 to 36", "unit": "h"},
      {"measurement": "itraconazole metabolites secreted in urine", "setting": "[1]; within a week after uptake of the drug", "result": "About 35%"},
      {"measurement": "binding rate with plasma proteins", "setting": "plasma proteins", "result": 99.8, "unit": "%"}
    ]},
    {"compound": "hydroxy-itraconazole", "values": [
      {"measurement": "antifungal activity in vitro", "setting": "fungi", "result": "has been demonstrated in vitro to have antifungal activity"}
    ]}
  ]
}
